According to patent US20130273182A1, “A Herbal Extract for Treating Fatty Liver Disease and a Medication Thereof” (priority 2012, published 2013):

Assay: DPPH free radical elimination test
Format: biochemical
Settings: 10 mg/ml sample, 0.1 mM DPPH, room temperature 30 minutes, OD 517 nm
Procedure: Trial (A): DPPH Free Radical Elimination Test Referring to TABLE 1, there are six groups (A0) to (A5) to test, wherein the group (A0) comprising 10 mg/ml of ascorbic acid, and other five groups comprising extract of a dry Andrographis paniculata sample, a dry Acanthopanax senticosus sample or a combination of dry Andrographis paniculata sample and dry Acanthopanax senticosus sample in various weight ratios respectively. The group (A1) is a liquid extract obtained by extracting 4 kg of dry Andrographis paniculata sample with 1 liter of 95% ethanol. The group (A2) is a liquid extract obtained by extracting 4 kg of dry Acanthopanax senticosus sample with 1 liter of 95% ethanol. The group (A3) is a liquid extract obtained by extracting 4 kg of dry Andrographis paniculata sample and dry Acanthopanax senticosus sample in a weight ratio of 1:1 with 1 liter of 95% ethanol. The group (A4) is a liquid extract obtained by extracting 4 kg of dry Andrographis paniculata and dry Acanthopanax senticosus in a weight ratio of 1:2 with 1 liter of 95% ethanol. The group (A5) is a liquid extract obtained by extracting 4 kg of dry Andrographis paniculata and dry Acanthopanax senticosus in a weight ratio of 1:3 with 1 liter of 95% ethanol. […] The 6 samples are analyzed in the DPPH free radical elimination ability. […] DPPH elimination rates of each sample are further calculated by using Formula I. [formula]

Which “Percentage of DPPH elimination (%)” value does the source give for `O=C1O[C@H]([C@@H](O)CO)C(O)=C1O` [ascorbic acid] here?
Its value is 96.4 ± 2.7%.
